Source: patent publication US9499550B2 (BRISTOL-MYERS SQUIBB COMPANY, priority 2012, dated 2016)
Read-outs that look alike come from different tables or passages of the source.

Experiments:
[1] = tested on: HCV genotype 1a (H77 strain) replicon in HUH-7 cells; assay: HCV replicon luciferase reporter assay, genotype 1a; format: cell-based; details: Hepatitis C virus, Huh-7, 72 h, HCV genotype 1a replicon luciferase, 3 days incubation, read-out: LE_1a (EC50, range)
In short: (§1)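 Replicon inhibition for both genotypes was measured as Renilla luciferase signal (EnduRen, 7.5 μM final, 2 h) after 3-day, 37° C exposure of replicon-bearing HUH-7 cells in 4% FCS DMEM, 0.5% DMSO. The 1b construct carries S1179I; the 1a H77 construct carries P1496L and S2204I. Twenty-point, 3-fold dilutions were fitted four-parametrically for EC50, and CC50 was taken from multiplexed Cell Titer-Blue.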

[2] = tested on: HCV genotype 1b (Con1) replicon in HUH-7 cells; assay: HCV replicon luciferase reporter assay, genotype 1b; format: cell-based; details: Hepatitis C virus, Huh-7, 72 h, HCV genotype 1b replicon luciferase, 3 days incubation, read-out: LE_1b (EC50, range)
In short: as §1

Row | SMILES | EC50 ([1]; GETYPE1A) [nM] | EC50 ([2]; GETYPE1B) [nM] | EC50 [1] [nM] | EC50 [2] [nM]
1 | C[C@@H]1CC/C=C\[C@@H]2C[C@@]2(C(=O)NS(=O)(=O)C2(C)CC2)NC(=O)[C@@H]2C[C@@H](Oc3ncc(OC(=O)OC(C)(C)C(F)(F)F)c4ccccc34)CN2C(=O)[C@@H](NC(=O)OC(C)(C)C(F)(F)F)[C@H](C)C1 [Compound 4133] | 4.82 to 103 | < 5.46 | – | –
2 | C=COc1cnc(O[C@@H]2C[C@H]3C(=O)N[C@]4(C(=O)NS(=O)(=O)C5(C)CC5)C[C@H]4/C=C\CC[C@@H](C)C[C@@H](C)[C@H](NC(=O)OC(C)(C)C)C(=O)N3C2)c2ccccc12 [Compound 4134, tert-butyl (2R,6S,7R,9R,13aS,14aR,16aS,Z)-7,9-dimethyl-14a-(1-methylcyclopropylsulfonylcarbamoyl)-5,16-dioxo-2-(4-(vinyloxy)isoquinolin-1-yloxy)-1,2,3,5,6,7,8,9,10,11,13a,14,14a,15,16,16a-hexadecahydrocyclopropa[e]pyrrolo[1,2-a][1,4]diazacyclopentadecin-6-ylcarbamate] | – | – | < 5.46 | < 5.46
3 | COc1ccc2c(O[C@@H]3C[C@H]4C(=O)N[C@]5(C(=O)NS(=O)(=O)C6(C)CC6)C[C@H]5/C=C\CC[C@@H](C)C[C@@H](C)[C@H](NC(=O)OC(C)(C)C(F)(F)F)C(=O)N4C3)ncc(N3CCOCC3)c2c1 [Compound 4135] | < 5.46 | < 5.46 | – | –
4 | CCOc1cnc(O[C@@H]2C[C@H]3C(=O)N[C@]4(C(=O)NS(=O)(=O)C5(C)CC5)C[C@H]4/C=C\CC[C@@H](C)C[C@@H](C)[C@H](NC(=O)OC(C)(C)C)C(=O)N3C2)c2ccc(OC)cc12 [Compound 4136, tert-butyl (2R,6S,7R,9R,13aS,14aR,16aS,Z)-2-(4-ethoxy-6-methoxyisoquinolin-1-yloxy)-7,9-dimethyl-14a-(1-methylcyclopropylsulfonylcarbamoyl)-5,16-dioxo-1,2,3,5,6,7,8,9,10,11,13a,14,14a,15,16,16a-hexadecahydrocyclopropa[e]pyrrolo[1,2-a][1,4]diazacyclopentadecin-6-ylcarbamate] | – | – | < 5.46 | < 5.46
5 | COc1ccc2c(O[C@@H]3C[C@H]4C(=O)N[C@]5(C(=O)NS(=O)(=O)C6(C)CC6)C[C@H]5/C=C\CC[C@@H](C)C[C@@H](C)[C@H](NC(=O)OC(C)(C)C)C(=O)N4C3)ncc(N3CCOCC3)c2c1 [Compound 4137, tert-butyl (2R,6S,7R,9R,13aS,14aR,16aS,Z)-2-(6-methoxy-4-morpholinoisoquinolin-1-yloxy)-7,9-dimethyl-14a-(1-methylcyclopropylsulfonylcarbamoyl)-5,16-dioxo-1,2,3,5,6,7,8,9,10,11,13a,14,14a,15,16,16a-hexadecahydrocyclopropa[e]pyrrolo[1,2-a][1,4]diazacyclopentadecin-6-ylcarbamate] | – | – | < 5.46 | < 5.46
6 | CCOc1cnc(O[C@@H]2C[C@H]3C(=O)N[C@]4(C(=O)NS(=O)(=O)C5(C)CC5)C[C@H]4/C=C\CC[C@@H](C)C[C@@H](C)[C@H](NC(=O)Oc4ccc(F)cc4F)C(=O)N3C2)c2ccccc12 [Compound 4138, 2,4-difluorophenyl (2R,6S,7R,9R,13aS,14aR,16aS,Z)-2-(4-ethoxyisoquinolin-1-yloxy)-7,9-dimethyl-14a-(1-methylcyclopropylsulfonylcarbamoyl)-5,16-dioxo-1,2,3,5,6,7,8,9,10,11,13a,14,14a,15,16,16a-hexadecahydrocyclopropa[e]pyrrolo[1,2-a][1,4]diazacyclopentadecin-6-ylcarbamate] | – | – | 4.82 to 103 | 4.82 to 103
7 | CCOc1cnc(O[C@@H]2C[C@H]3C(=O)N[C@]4(C(=O)NS(=O)(=O)C5(C)CC5)C[C@H]4/C=C\CC[C@@H](C)C[C@@H](C)[C@H](NC(=O)Oc4ccccc4F)C(=O)N3C2)c2ccccc12 [Compound 4139, 2-fluorophenyl (2R,6S,7R,9R,13aS,14aR,16aS,Z)-2-(4-ethoxyisoquinolin-1-yloxy)-7,9-dimethyl-14a-(1-methylcyclopropylsulfonylcarbamoyl)-5,16-dioxo-1,2,3,5,6,7,8,9,10,11,13a,14,14a,15,16,16a-hexadecahydrocyclopropa[e]pyrrolo[1,2-a][1,4]diazacyclopentadecin-6-ylcarbamate] | – | – | 4.82 to 103 | 4.82 to 103
8 | CCOc1cnc(O[C@@H]2C[C@H]3C(=O)N[C@]4(C(=O)NS(=O)(=O)C5(C)CC5)C[C@H]4/C=C\CC[C@@H](C)C[C@@H](C)[C@H](NC(=O)Oc4ccccc4)C(=O)N3C2)c2ccccc12 [Compound 4140, phenyl (2R,6S,7R,9R,13aS,14aR,16aS,Z)-2-(4-ethoxyisoquinolin-1-yloxy)-7,9-dimethyl-14a-(1-methylcyclopropylsulfonylcarbamoyl)-5,16-dioxo-1,2,3,5,6,7,8,9,10,11,13a,14,14a,15,16,16a-hexadecahydrocyclopropa[e]pyrrolo[1,2-a][1,4]diazacyclopentadecin-6-ylcarbamate] | – | – | < 5.46 | < 5.46
9 | COc1ccc2c(O[C@@H]3C[C@H]4C(=O)N[C@]5(C(=O)NS(=O)(=O)C6(C)CC6)C[C@H]5/C=C\CC[C@@H](C)C[C@@H](C)[C@H](NC(=O)C5CCN(C(C)=O)CC5)C(=O)N4C3)ncc(OC)c2c1 [Compound 4141, (2R,6S,7R,9R,13aS,14aR,16aS,Z)-6-(1-acetylpiperidine-4-carboxamido)-2-(4,6-dimethoxyisoquinolin-1-yloxy)-7,9-dimethyl-N-(1-methylcyclopropylsulfonyl)-5,16-dioxo-1,2,3,5,6,7,8,9,10,11,13a,14,14a,15,16,16a-hexadecahydrocyclopropa[e]pyrrolo[1,2-a][1,4]diazacyclopentadecine-14a-carboxamide] | – | – | 4.82 to 103 | 4.82 to 103
10 | COc1ccc2c(O[C@@H]3C[C@H]4C(=O)N[C@]5(C(=O)NS(=O)(=O)C6(C)CC6)C[C@H]5/C=C\CC[C@@H](C)C[C@@H](C)[C@H](NC(=O)c5ccncc5F)C(=O)N4C3)ncc(OC)c2c1 [Compound 4142, (2R,6S,7R,9R,13aS,14aR,16aS,Z)-2-(4,6-dimethoxyisoquinolin-1-yloxy)-6-(3-fluoroisonicotinamido)-7,9-dimethyl-N-(1-methylcyclopropylsulfonyl)-5,16-dioxo-1,2,3,5,6,7,8,9,10,11,13a,14,14a,15,16,16a-hexadecahydrocyclopropa[e]pyrrolo[1,2-a][1,4]diazacyclopentadecine-14a-carboxamide] | – | – | < 5.46 | < 5.46
11 | COc1ccc2c(O[C@@H]3C[C@H]4C(=O)N[C@]5(C(=O)NS(=O)(=O)C6(C)CC6)C[C@H]5/C=C\CC[C@@H](C)C[C@@H](C)[C@H](NC(=O)c5ccn(C)c(=O)c5)C(=O)N4C3)ncc(OC)c2c1 [Compound 4143, (2R,6S,7R,9R,13aS,14aR,16aS,Z)-2-(4,6-dimethoxyisoquinolin-1-yloxy)-7,9-dimethyl-6-(1-methyl-2-oxo-1,2-dihydropyridine-4-carboxamido)-N-(1-methylcyclopropylsulfonyl)-5,16-dioxo-1,2,3,5,6,7,8,9,10,11,13a,14,14a,15,16,16a-hexadecahydrocyclopropa[e]pyrrolo[1,2-a][1,4]diazacyclopentadecine-14a-carboxamide] | – | – | 4.82 to 103 | 4.82 to 103
12 | COc1ccc2c(O[C@@H]3C[C@H]4C(=O)N[C@]5(C(=O)NS(=O)(=O)C6(C)CC6)C[C@H]5/C=C\CC[C@@H](C)C[C@@H](C)[C@H](NC(=O)OC(C)(C)C)C(=O)N4C3)ncnc2c1 [Compound 4144, tert-butyl (2R,6S,7R,9R,13aS,14aR,16aS,Z)-2-(7-methoxyquinazolin-4-yloxy)-7,9-dimethyl-14a-(1-methylcyclopropylsulfonylcarbamoyl)-5,16-dioxo-1,2,3,5,6,7,8,9,10,11,13a,14,14a,15,16,16a-hexadecahydrocyclopropa[e]pyrrolo[1,2-a][1,4]diazacyclopentadecin-6-ylcarbamate] | – | – | < 5.46 | < 5.46
13 | C[C@@H]1CC/C=C\[C@@H]2C[C@@]2(C(=O)NS(=O)(=O)C2(C)CC2)NC(=O)[C@@H]2C[C@@H](Oc3ncnc4c(Cl)cccc34)CN2C(=O)[C@@H](NC(=O)OC(C)(C)C)[C@H](C)C1 [Compound 4145, tert-butyl (2R,6S,7R,9R,13aS,14aR,16aS,Z)-2-(8-chloroquinazolin-4-yloxy)-7,9-dimethyl-14a-(1-methylcyclopropylsulfonylcarbamoyl)-5,16-dioxo-1,2,3,5,6,7,8,9,10,11,13a,14,14a,15,16,16a-hexadecahydrocyclopropa[e]pyrrolo[1,2-a][1,4]diazacyclopentadecin-6-ylcarbamate] | – | – | < 5.46 | < 5.46
14 | COc1ccc2c(O[C@@H]3C[C@H]4C(=O)N[C@]5(C(=O)NS(=O)(=O)C6(CF)CC6)C[C@H]5/C=C\CC[C@@H](C)C[C@@H](C)[C@H](NC(=O)OC(C)(C)C)C(=O)N4C3)nccc2c1 [Compound 4147, tert-butyl (2R,6S,7R,9R,13aS,14aR,16aS,Z)-14a-(1-(fluoromethyl)cyclopropylsulfonylcarbamoyl)-2-(6-methoxyisoquinolin-1-yloxy)-7,9-dimethyl-5,16-dioxo-1,2,3,5,6,7,8,9,10,11,13a,14,14a,15,16,16a-hexadecahydrocyclopropa[e]pyrrolo[1,2-a][1,4]diazacyclopentadecin-6-ylcarbamate] | – | – | < 5.46 | < 5.46
15 | COc1ccc2c(O[C@@H]3C[C@H]4C(=O)N[C@]5(C(=O)NS(=O)(=O)C6(CF)CC6)C[C@H]5/C=C\CC[C@@H](C)C[C@@H](C)[C@H](NC(=O)OC(C)(C)C(F)(F)F)C(=O)N4C3)cc(-c3ccc(OC(C)C)cc3)nc2c1 [Compound 4148] | < 5.46 | < 5.46 | – | –
